Results taken from publication PMC11946258, “Self-Assembly, Antimicrobial Properties and Biodegradability of Ester-Functionalized Choline-Based Surface-Active Ionic Liquids” (Molecules, 2025).
Where “and” joins values, the source holds several entries; their conditions need not be identical. Equal entries are not always repeated.

How the values were obtained:
[1] = Critical micelle concentration by conductivity; format: physicochemical; conditions: aqueous solution, 25 °C
From the text: The change in specific conductivity of ester-functionalized choline-based ILs as a function of their concentration was investigated. […] Conductometric plots of the other homologues are presented in the Supplemetary Materials (Figures S10 and S11).
In the pre- and postmicellization zones, the specific conductivity values are represented by two straight lines with different slopes. As a consequence of the micelle’s reduced mobility in comparison to the monomers and the binding of certain counterions to it, a pronounced change in slope is observed. The critical micelle concentration (CMC) value was calculated from the point of inflection in the curve. […] In accordance with the empirical Stauff–Klevens Equation (1), a linear relationship is observed between log CMC and alkyl chain length:log cmc = A − B × n(1)
Conductivity measurements were carried out at 25 °C using an Orion conductivity cell 913005MD with an epoxy/graphite electrode and a Thermo Orion 5 Star multiparameter instrument with a cell constant of 0.475 cm^−1.

MRSA biofilm = MRSA biofilm formation inhibition (crystal violet); format: cell-based, methicillin-resistant Staphylococcus aureus; conditions: Staphylococcus aureus, at 128 µg/mL (highest concentration tested), 24 h, 37 °C, CV staining
Experimental: To assess the ability of ester-functionalized cholinium-based ILs to suppress MRSA biofilm formation, CnECholBr samples were introduced to newly prepared bacterial suspensions. These mixtures were then incubated for 24 h at 37 °C. Subsequently, crystal violet (CV) staining was employed to quantify the biofilm biomass. The findings from this experiment are illustrated in Figure 4.
(§1) Antibiofilm activity was assessed against biofilm-forming strains of methicillin-resistant Staphylococcus aureus (MRSA) ATCC 43300 and Candida albicans ATCC 90028. The biofilm inhibition and eradication capacities of ILs were evaluated against adherent bacterial biofilms grown in 96-well microtiter plates. Bacteria were grown on Tryptic soy agar at 37 °C for 24 h and the fungi on Sabouraud agar at 30 °C for 24 h. Bacteria were suspended in lysogeny broth containing glucose (1%) at 1.5 × 10^8 CFU/mL and yeasts were suspended in RPMI medium at 1.5 × 10^7 CFU/mL.
To assess the effect of ionic liquids on bacterial biofilm formation, we employed a microplate assay. We added 100 μL of IL at varying concentrations (2–128 μg/mL, using two-fold serial dilutions) to each well of a 96-well microplate, followed by 100 μL of diluted bacterial suspension. After incubating the plates at 37 °C for 24 h, we measured bacterial growth by recording the optical density at 600 nm (OD600). We then discarded the spent media, fixed the biofilm with methanol, and stained it with crystal violet. Following a water rinse, we dissolved the stained biofilm using an ethanol-acetic acid solution and measured the absorbance at 570 nm to quantify biofilm formation. To ensure reproducibility, we performed each assay in triplicate and averaged the results.

MRSA biofilms = assay: MRSA mature biofilm eradication (crystal violet); format: cell-based, methicillin-resistant Staphylococcus aureus; conditions: CV staining, up to the highest tested concentration of 256 µg/mL
Experimental: The capacity of the ester-functionalised cholinium-based ILs to eradicate established MRSA biofilms was evaluated through the performance of eradication assays on microtiter plates. CV staining was applied to measure biofilm biomass.
as §1
To evaluate the effect of ionic liquids on mature biofilms, we employed a modified microtiter plate assay. We first generated mature biofilms by incubating 200 μL of diluted bacterial suspension in each well of a 96-well plate for 24 h at 37 °C. After gently washing the biofilms with PBS, we added 200 μL of ionic liquid solution at various concentrations (4–256 μg/mL, using two-fold serial dilutions) to each well and incubated for an additional 24 h at 37 °C. Following treatment, we fixed the biofilms with 150 μL methanol for 10 min. The subsequent crystal violet (CV) staining and quantification steps were performed as described in the previous biofilm formation assay (Section 3.6.1), allowing us to assess the impact of ionic liquids on established biofilms.

[2] = Critical micelle concentration by pyrene fluorescence; format: physicochemical; conditions: fluorescence (pyrene I1/I3), aqueous solution, 25 °C
Experimental: The aggregation behavior of ester-functionalized choline-based ILs was investigated through fluorescence measurements using pyrene as a solvatochromic probe. By monitoring the polarity of pyrene’s microenvironment at varying IL concentrations, the intensity ratio of pyrene’s first (I1) and third (I3) vibronic peaks was analyzed (Figure 3). A sharp decline in the I1/I3 ratio indicated the formation of IL aggregates. The critical micelle concentration (CMC) was determined as the midpoint of the transition, with the data fitting well to sigmoidal Boltzmann-type curves.
A Shimadzu RF 540 spectrofluorometer equipped with cell holder thermostatical controlled at 25 °C was used to detect steady-state fluorescence. The fluorescent probe, pyrene, was used at a concentration of 1 × 10^−6 M. After irradiation at 332 nm, the fluorescence emission spectra of pyrene dissolved in aqueous CnECholBr solutions were recorded from 340 to 450 nm.

[3] = system: erythrocytes from rabbit blood; assay: Hemolytic activity; format: cell-based; conditions: concentration inducing 50% hemolysis, PBS pH 7.4, 10 min
Experimental: To perform an initial assessment of cell toxicity, hemolysis has been employed. The hemolytic activity of ester-functionalized choline-based ILs was determined by mesuring the release of haemoglobin in erythrocytes from rabbit blood samples in the presence of these compounds. The HC50 values, representing the concentracion inducing 50% hemolysis, were calculated from the plots of the percentages of hemolysis versus CnECholBr concentration (Figure 7). The HC50 values are compiled in Table 4.
Rabbit blood samples, used to prepare the erythrocyte suspension, were obtained from the animal facility of the Research and Development Center (CID) of the Spanish National Research Council (CID-CSIC) in Barcelona, Spain. The collection of fresh blood from rabbits adhered strictly to the bioethical guidelines stipulated by Spanish legislation, ensuring ethical treatment of the animals and compliance with research protocols. Heparinized blood samples were centrifuged for 10 min at 3000 rpm. The supernatant containing the white cells was discarded, while the erythrocytes were washed three times in PBS (pH 7.4). Erythrocytes were then suspended in PBS at a cell density of 8 × 10^9 cells/mL. A series of different volumes of a concentrated IL solution (10 to 80 μL) were placed in Eppendorf tubes containing 25 μL of erythrocyte suspension and PBS was added to each tube to a total volume of 1 mL [33]. Samples were shaken for 10 min at rt and the tubes were centrifuged (5 min at 10,000 rpm). The percentage of hemolysis was calculated by comparing the absorbance (540 nm) of the supernatant of the samples containing surfactants with that of the hemolyzed control with distilled water. The HC50 (concentration of surfactant that causes 50% hemolysis) was determined from the concentration-response curves.

| Structure (SMILES) | CMC [1] [mM] | inhibition at 128 µg/mL (MRSA biofilm) [%] | biofilm biomass removal (MRSA biofilms) | CMC [2] [mM] | HC50 [3] |
| --- | --- | --- | --- | --- | --- |
| CCCCCCCCCCOC(=O)C[N+](C)(C)CCO [C10ECholBr] | 11.2 ± 0.8 | < 15 | less than 20% | 9.0 ± 0.5 | >2500 µM |
| CCCCCCCCCCCCOC(=O)C[N+](C)(C)CCO [C12ECholBr] | 4.2 ± 0.5 | > 90 | ≤ 60% | 2.9 ± 0.1 | 232 ± 2 µM |
| CCCCCCCCCCCCCCOC(=O)C[N+](C)(C)CCO.[Br-] [C14ECholBr, N-(2-hydroxyethyl)-N,N-dimethyl-2-oxo-2-(tetradecyloxy)ethan-1-aminium bromide] | 0.7 ± 0.1 | ≤ 50 | ≤ 60% | 1.3 ± 0.1 | 56 µM and 56 ± 1 µM |
